These results are taken from patent publication US20260345584A1, “METHODS AND PHARMACEUTICAL COMPOSITIONS FOR TREATING CHEMOTHERAPY-INDUCED PERIPHERAL NEUROPATHY WITH EG5 INHIBITORS” (UNIVERSITY OF MIAMI, priority 2023, published 2026).

Series [1] has as its system caudal fin keratinocytes (dfMTs). Kind of series: dfMT formation (detyrosinated fasciculated looped microtubules) in zebrafish caudal fin keratinocytes. It counts as in vivo. The procedure:
The stock solution was divided into 20-30 μl aliquots and stored at −20 °C until use (maximal 6 months). Immediately prior to use, paclitaxel was diluted in Ringer's solution and added to dechorionated larval zebrafish. The larval fish were placed individually or in small groups into wells of a 12-well plate containing the treatment solutions. The control group was 0.05% DMSO. Plates were incubated at 28.5 °C and protected from light. Treatment lengths are indicated in the Drawings, Description of the Drawings, and Examples where appropriate. […] EMD534085, Eg5 inhibitor (MedChemExpress, Cat. No. HY-15000) was diluted in 100% DMSO to make a 10 mM stock solution and stored at −20 °C. […] The solutions were exchanged every 48 hr.
Larval fish were transferred into […] glass vials and fixed in 4% paraformaldehyde (PFA)/1× Phosphate-buffered saline (PBS) for 1.5 hr at room temperature, with gentle rocking. Following a 5-minute incubation in 1×PBS+0.1% Tween-20 (PBST), zebrafish were permeabilized in 1×PBS+0.1% Triton X-100 for 10-30 min. Larval fish were transferred into 2 ml reaction tubes and incubated in blocking buffer (1×PBST+5% BSA) for 30 min at room temperature, with rocking. Larval fish were further incubated overnight in antibody solution (Millipore Sigma, Cat. No. AB3201, 1:300 rabbit anti-GluTub; Sigma, Cat No. T6793, 1:500 mouse anti-acetylated tubulin) in blocking buffer at 4 °C, on a rotator. The next morning, larval fish were transferred into 6-well plates and washed 4×15 min in 1×PBST at room temperature, with rocking. This was followed by incubation in secondary antibody (goat anti-rabbit Cy5, Abcam, Cat. No. ab97077; goat anti-mouse Cy3, Abcam, Cat. No. ab97035) and 1:10,000 Hoechst 33342 (ThermoFisher Scientific, Cat. No. 62249, 20 mM solution) in blocking buffer for 1 hr at room temperature, with rocking. Fish were covered to avoid bleaching. Fish were washed for 4×15 min in 1×PBST at room temperature, with rocking, and immediately mounted for imaging on glass bottom petri dishes (Spectrum Laboratory Products, Cat. No. 750-10403-UE) using 1% agarose (Thermo Fisher Scientific, Cat. No. 16520050). A 1:200 dilution was used for mouse alpha-tubulin antibody (Proteintech, Cat. No. 66031-1) and a 1:1,000 dilution of donkey anti-mouse IgG Alexa488 (ThermoFisher Scientific, Cat. No. A-21202) for secondary detection. For Nox1 immunostaining, a 1:300 dilution of primary antibody (Anti-NOX1 Rabbit Polyclonal Antibody, Avantar, Cat. No. 102164-796) and a 1:1,000 dilution of secondary goat anti-rabbit Cy2 (Abcam, Cat. No. ab6940) antibody was used. Eg5 antibody (Abcam, Cat. No. 61199) was used at a 1:100 and secondary goat anti-rabbit Cy2 (Abcam, Cat. No. ab6940) at 1:1,000 dilution.
CRISPR oligos targeting kif11 were designed using the IDT CRISPR design tool (https://www.idtdna.com/site/order/designtool/index/CRISPR_CUSTOM). The oligo (5′-[…] (SEQ ID NO: 21) was designed to anneal within exon 5 of 23 exons total in zebrafish kif11 with expected mutations ~ position 270 bp in the sequenced region using the following primers for PCR amplification: Fwd 5′-[…]-3′ (SEQ ID NO: 22) and Rev 5′-[…]-3′ (SEQ ID NO: 23). The forward primer was used for sequencing and yielded deletions in transiently injected embryos, as shown in example below in which single zebrafish were sequenced (FIG. 10).
The CRISPR oligo was injected using the Alt-R system (IDT, https://www.idtdna.com/pages/technology/crispr/crispr-genome-editing/Alt-R-systems/cas9), which has provided highly reliable and efficient zebrafish knockout results as used herein. The IDT-recommended protocol (below) was used for CRISPR oligo preparations. Fertilized eggs were injected ~15 minutes post fertilization with CRISPR oligos to ensure maximal efficiency.
Cell counting in the caudal fin was performed in three 100 μm^2 boxes in the dorsal, medial and ventral caudal fin (~100 μm from the edge). […]

For series [2], the system named is caudal fin keratinocytes (cell death). Put plainly: Keratinocyte cell death, 12 hr time-lapse imaging. Format: in vivo, zebrafish. The procedure:
(§1) Fish were anesthetized in 2-phenoxyethanol (1:1000) in Ringer's solution prior to imaging and mounted in 1.2% agarose. EB3-GFP and Tau-Bfp2 were imaged with a scan speed kept at the maximum level in single slice mode with […] for a total of 60s to capture microtubule dynamics. h2a:H2A-GFP time-lapse recordings were produced (Zeiss LSM880 AiryScan confocal microscope) with 1 μm sections recorded every 10 min for 12 hr using 800×800 pixels. All other live fish were imaged using 1024×1024 pixels.
Cell divisions and cell death were manually counted in 12 hr movie recordings. The caudal fin was divided into 6 quadrants and individual cells in each quadrant were manually followed over 12 hr at least 3 times sequentially to capture cell divisions and dying cell behaviors.

Series [3] relates to microtubules in keratinocytes. Put plainly: EB3-GFP microtubule growth dynamics in keratinocytes. It counts as in vivo, zebrafish. Here is the method:
as §1
EB3-GFP tracking was done in Fiji using the MTrackJ plugin to trace microtubules over time and create Kymographs, measure the velocity, track length, and comet duration. Tracking was also performed using the Spots and Surface tools in Imaris. Settings were initially automatically detected to fit the fluorescence and subsequently modified manually for improved fit. Settings were maintained between treatment groups.
To validate this, microtubule growth dynamics were characterized in basal keratinocytes expressing the microtubule plus-end binding protein, EB3-GFP (courtesy of R. Koester) (Distel et al., 2010, The Journal of cell biology 191: 875-890). […] However, a small proportion of keratinocytes also harbored uniformly labelled EB3-positive microtubules, consistent with previous observations in murine axons (Kleele et al., 2015, Proceedings of the National Academy of Sciences of the United States of America 112: 7501-7506). […] This behavior therefore contrasts the curved conformation of stable dfMTs.

Regarding `CN(C)CCNC(=O)NC[C@H]1CC[C@@H]2[C@H](O1)c1cc(C(F)(F)F)ccc1N[C@H]2c1ccccc1` [EMD534085], the “animals with dfMTs” value in series [1] (25 μM EMD534085 alone) is 0%. The “number of dfMT-harboring keratinocytes per animal” value in series [1] (EMD534085 alone, 96 hr) was determined as 0±0 cells/animal. This compound also had a cell death in series [2] (EMD534085 alone, 96 hr) of 0.81±0.26 dying cells/caudal fin. Besides, the “paclitaxel-dependent microtubule growth dynamics” value in series [3] (EMD534085 with 22 μM paclitaxel) is on record as “did not alter the effects induced by paclitaxel alone”.

`CC(=O)O[C@H]1C(=O)[C@@]2(C)[C@H]([C@H](OC(=O)c3ccccc3)[C@]3(O)C[C@H](OC(=O)[C@H](O)[C@@H](NC(=O)c4ccccc4)c4ccccc4)C(C)=C1C3(C)C)[C@]1(OC(C)=O)CO[C@@H]1C[C@@H]2O` [paclitaxel]: in series [1] (100 nM paclitaxel), the dfMT-positive keratinocytes is recorded as 0.4±0.21 dfMT-positive keratinocytes/100 μm^2. Further, the “animals with dfMTs” value is on record as 20% in series [1] (100 nM paclitaxel, alone or with 25 μM EMD534085) and 65.22% in series [1] (22 μM paclitaxel, alone or with 25 μM EMD534085). Also, the “number of dfMT-harboring keratinocytes per animal” value in series [1] (100 nM paclitaxel, alone or with 25 μM EMD534085, 96 hr) came to 0.4±0.21 cells/animal; in series [1] (22 μM paclitaxel, alone or with 25 μM EMD534085, 96 hr), 6.957±1.49 cells/animal. In addition, the “animals with dfMT” value in series [1] (22 μM paclitaxel, 48 hr) is listed as ~ 45%; in series [1] (22 μM paclitaxel, 96 hr (FIG. 1I)), ~ 90%. Also, the “keratinocytes with dfMTs” value amounted to 3.64±1.28 keratinocytes/100 μm^2 in series [1] (22 μM paclitaxel, 48 hr) and 7.7±1.6 keratinocytes/100 μm^2 in series [1] (22 μM paclitaxel, 96 hr). In series [1] (3 hr paclitaxel), the dfMT presence entry is reported as “never”. Further, the cell death in series [2] (100 nM paclitaxel, alone or with EMD534085, 96 hr) was 0.18±0.18 dying cells/caudal fin; in series [2] (22 μM paclitaxel, alone or with EMD534085, 96 hr), 0.6±0.3 dying cells/caudal fin. The “keratinocytes with uniform EB3 labelling” value is on record as 20.13% in series [3] (22 μM paclitaxel, 96 hr); 19.29% in series [3] (paclitaxel, 3 hr); 10.09% in series [3] (paclitaxel, 48 hr). In addition, the comet duration entry in series [3] (paclitaxel, 3 hr) was “not affected”. In series [3] (paclitaxel, 3 hr), the “growth velocity and track length of microtubules” value was “decreased the growth velocity and track length of microtubules”. Also, the linearity of microtubules entry in series [3] (paclitaxel, 48 hr and 96 hr) was “further enhanced the linearity”.
